Measured values published in patent publication US7381731B2, “Pharmaceutical composition comprising citrulline” (Angiogenix, Inc., priority 1994, dated 2008).

What was measured:
y^+ transporter = test: y+ transport of [3H]-LA in cells exposed to NOS agonists or NO donors, sodium-free uptake buffer; type: cell-based, bovine; conditions: for increase of [3H]-LA uptake: Ach 5 μM; for increase of y+ transport of L-arginine / increase of y+ transporter activity from control: SP 1 μM; for maximum inhibition of y+ transport: FIG. 16; for inhibition of L-arginine transport: data not shown
Experimental: Effect of NOS agonists on cellular uptake of LA.
Effect of NO donors on cellular uptake of LA.
In order to confirm whether the reduction in cellular uptake of [^3H]-LA was due to NO released from SNAP, experiments were performed using another NO donor, DPTA-NONOate. Unlike SNAP, which donates large amounts of NO over a short time period (t1/2˜10 minutes), the use of DPTA-NONOate allows for a slower (t1/2˜5 hours), more sustained release of NO that is constant over time.

[1] = system: cultured bovine aortic EC; test: DOX as NOS agonist: NO production by oxyhemoglobin/methemoglobin conversion and NO sensitive electrode; type: cell-based
Experimental: In fact, a wide variety of vasoactive agents (e.g., bradykinin, muscarinic agonists and growth factors) which increase tPA levels are also agonists of nitric oxide synthase (NOS). DOX activity as a NOS agonist was investigated in cultured bovine aortic EC using two methods to assess NO production: conversion of oxyhemoglobin to methamoglobin and a NO sensitive electrode.
For all experiments described herein, human coronary artery endothelial cells (passage 3-5-Clonetics) were maintained at 37°, […] and 5% CO2 in Medium 199 (M199) supplemented with 5% fetal bovine serum (FBS, Hyclone), 10% iron supplemented FBS (Hyclone), thymidine ([…]), penicillin G (100 U mL^−1) and streptomycin (100 μmL^−1). […] Acetylcholine, an eNOS agonist, was used in all experiments as the positive control at concentrations of 10^−7 and 10^−6 M.
Nitric Oxide Measurements. Methemoglobin—The effect of DOX on NO production in EC was determined using a photometric assay for conversion of oxyhemoglobin to methemoglobin. […] Perfusate is then directed into a flow-through cuvette in a dual wavelength spectrophotometer and change in absorbency (415/405 nm) is measured. Experimental stimulation was carried out by 3 min infusion periods of DOX added to buffer perfusion to yield final concentrations of 10^−7 and 10^−6 M. For analysis, we determined the area under the curve for the change in absorbency response/min caused by DOX assuming a one to one correspondence for NO and metHb production, the known stoichiometric balance for this reaction. NO production was measured with a NO meter connected to a polargraphic NO electrode as previously described. The NO sensor probe will be inserted vertically into 24-well plates containing confluent EC such that the tip of the electrode is submerged 2 mm under the surface of medium (above −1 ml). The reaction was initiated when desired concentrations of DOX are added to the well. Calibrations were performed with S-nitroso-acetyl-penicillamine.

[2] = system: bovine aortic endothelial cells (BAEC); test: Superoxide anion (O2*—) formation in BAEC; type: cell-based; conditions: for inhibition of O2*— production induced by A-23187: A-23187 1 μM; for inhibition of O2*— production induced by A-23187 / reduction of O2*— induced by SP: concurrent treatment 5×10^−4M; for reduction of O2*— induced by SP: SP 1 μM; for prevention of basal production of O2*—: supplementation 5×10^−4M; for prevention of basal production of O2*— / increase of O2*— production above basal levels: 60 minute period; for increase of O2*— production above basal levels: 1 μM
Excerpt: Cellular superoxide anion formation—Effect of NOS agonists on cellular superoxide anion formation.

[3] = system: bovine aortic endothelial cells (BAEC); test: NO production by endothelial cells on beads, photometric oxyhemoglobin to methemoglobin assay; type: cell-based
Excerpt: NO oxidize; oxyhemoglobin (HbO2) to methemoglobin (metHb) in the following reaction HbO2+NO−metHb+NO3. The amount of NO produced by endothelial cells was quantified by measuring the change in absorbance as HbO2 oxidizes to metHb. Oxyhemoglobin has a absorbance peak at 415 nm, while methb has a 406 nm absorbance peak. By subtracting the absorbance of metHb from HbO2, the concentration of NO can be assessed. The general method was patterned after that of Feelisch et al., (Biochem. and Biophy. Res. Comm. 1991; 180, Nc I:286-293).
The effects of pravastatin on activity of endothelial cells in producing NO were compared with those of actetylcholine, which is known to specifically stimulate NO production by NOS activity.

Compound: CC(=O)N[C@@H](C(=O)O)C(C)(C)SN=O (racemic) [SNAP, s-nitroso-acetyl-penicillamin]
- increase of activity of the y+ transporter (y^+ transporter; 200 μM SNAP (0.4 μM NO), ten minutes of exposure): 37%
- elevation of activity of the y+ transporter (y^+ transporter; 200 μM SNAP, 30 minute exposure): not seen
- reduction of uptake of [3H]-LA (y^+ transporter; 200 μM SNAP, 1 hour): 22%
- reduction of uptake of [3H]-LA (y^+ transporter; 200 μM SNAP, 2 hour exposure): 46%
- reduction of uptake of [3H]-LA (y^+ transporter; 200 μM SNAP, 3 hour exposure): 45%
- reduction of uptake of [3H]-LA (y^+ transporter; 200 μM SNAP, 5 hour exposure): 36%

Compound: CC(=O)OCC[N+](C)(C)C [acetylcholine]
- increase of [3H]-LA uptake (y^+ transporter; 2 minute exposure): 22%
- increase of [3H]-LA uptake (y^+ transporter; 15 minute (maximum)): 27%
- increase of [3H]-LA uptake (y^+ transporter; 30 minutes): 16%
- increase of [3H]-LA uptake (y^+ transporter; 60 minutes): 15.5%

Compound: COc1cc2nc(N3CCN(C(=O)C4COc5ccccc5O4)CC3)nc(N)c2cc1OC (centres unmarked) [DOX, Doxazosin]
- increase in NO production ([1]; DOX 10^−7-10^−5 M, dose-related): 64-145%

Compound: COC(=O)[C@@H](N)CCCNC(=N)N[N+](=O)[O-] [L-NAME, n-ω-nitro-L-arginine methyl ester]
- block of increase in NO to ACH ([1]; ACH 10^−6 M, prior L-NAME): 86%
- block of increase in NO to DOX ([1]; DOX 10^−6 M, prior L-NAME 5×10^−4 M): 72%
- inhibition of O2*— production induced by A-23187 [2]: 58%
- reduction of O2*— induced by SP [2]: 81%
- prevention of basal production of O2*— [2]: 100%
- reduction of acetylcholine-induced production of NO ([3]; buffer containing L-NAME 10^−3 M): 80%
- NO production in response to pravastatin ([3]; superfusion with L-NAME 10^−3 M): blunted

Compound: substance P [SP]
- increase of O2*— production above basal levels [2]: 3.5 fold
- increase of y+ transport of L-arginine (y^+ transporter; 15-minutes exposure): 24%
- increase of y+ transport of L-arginine (y^+ transporter; 30 minutes): 24%
- increase of y+ transport of L-arginine (y^+ transporter; 60 minutes): 21%
- increase of y+ transporter activity from control (y^+ transporter; 2 hour exposure): 34%
- increase of y+ transporter activity from control (y^+ transporter; 3 hour exposure): 27%
- increase of y+ transporter activity from control (y^+ transporter; 5 hour exposure): 21%

Compound: CC[C@H](C)C(=O)O[C@H]1C[C@H](O)C=C2C=C[C@H](C)[C@H](CC[C@@H](O)C[C@@H](O)CC(=O)O)[C@H]21 [pravastatin]
- increment in NO response to the 10^−5 M concentration ([3]; pravastatin 10^−5 M, larger than that of acetylcholine): ~3 X

Compound: N=C(N)NCCC[C@H](N)C(=O)O [L-arginine]
- accentuation of NO responses to ACH ([1]; supplemental L-arginine): 72%
- accentuation of NO responses to DOX ([1]; supplemental L-arginine 5×10^−4 M): 65%
- inhibition of O2*— production induced by A-23187 [2]: 60%
- reduction of O2*— induced by SP [2]: 51%
- prevention of basal production of O2*— [2]: not
- acetylcholine-elicited production of NO ([3]; L-NAME buffer replaced with buffer containing L-arginine 10^−3 M): returned to control levels
- NO production in response to pravastatin ([3]; subsequent perfusion with buffer containing L-arginine 10^−3 M): return in NO production to a level above the amount induced by the Pravastatin in control (basis) buffer

Compound: NCCCN(CCCN)/[N+]([O-])=N/O [DPTA-NONOate, dipropylenetriamine NONOate]
- maximum inhibition of y+ transport (y^+ transporter; 0.01 μM, 2 hour exposure): 20%
- effect on y+ system (y^+ transporter; 1 μM DPTA-NONOate (2 μM NO), 15 and 30 min): no significant effect
- inhibition of L-arginine transport (y^+ transporter; 1 μM DPTA-NONOate (2 μM NO), 1 hour exposure): 22%
- inhibition of L-arginine transport (y^+ transporter; 1 μM DPTA-NONOate (2 μM NO), 2 hour exposure): 24%
- inhibition of L-arginine transport (y^+ transporter; 1 μM DPTA-NONOate (2 μM NO), 4 hour exposure): 29%
- maximum inhibition of y+ transport (y^+ transporter; 1 μM, 2 hour exposure): 24%
- maximum inhibition of y+ transport (y^+ transporter; 10 μM, 2 hour exposure): 44%

Compound: CNc1ccc2oc(C[C@H]3O[C@@]4(CC[C@H]3C)O[C@H]([C@H](C)C(=O)c3ccc[nH]3)[C@H](C)C[C@H]4C)nc2c1C(=O)O [A-23187]
- increase of O2*— production above basal levels [2]: 2.5 fold
